In ChEMBL document CHEMBL3627697, “Aminopyrazolo[1,5-a]pyrimidines as potential inhibitors of Mycobacterium tuberculosis: Structure activity relationships and ADME characterization” (Bioorg Med Chem, 2015):
Values after ≈ are worked out from the molar mass of the structure shown.

Tests used:
[1] = test system: Mycobacterium tuberculosis; experiment: Antimycobacterial activity against Mycobacterium tuberculosis H37Rv in 7H9/ADC/Tween medium measured at day 14 by Alamar Blue assay; format: functional; conditions: 336 h
[2] = Kinetic solubility of the compound at pH 7.4 after 2 hrs by shake flask method-based HPLC-DAD analysis; format: physicochemical; conditions: buffer, read-out: Kinetic_solubility
[3] = Metabolic stability in human liver microsomes assessed as compound remaining at 0.1 uM measured at 30 mins by LC-MS/MS analysis; format: ADME; conditions: read-out: Stability
[4] = Metabolic stability in rat liver microsomes assessed as compound remaining at 0.1 uM measured at 30 mins by LC-MS/MS analysis; format: ADME; conditions: read-out: Stability
[5] = Metabolic stability in mouse liver microsomes assessed as compound remaining at 0.1 uM measured at 30 mins by LC-MS/MS analysis; format: ADME; conditions: read-out: Stability
[6] = test system: Mycobacterium tuberculosis; experiment: Antimycobacterial activity against Mycobacterium tuberculosis H37Rv in GAST-Fe medium measured at day 14 by Alamar Blue assay; format: functional; conditions: 336 h
[7] = test system: Mycobacterium tuberculosis; experiment: Antimycobacterial activity against Mycobacterium tuberculosis H37Rv in GAST medium with low Fe level measured at day 14 by Alamar Blue assay; format: functional; conditions: 336 h
CHO = experiment: Cytotoxicity against CHO cells assessed as cell viability by MTT assay; format: cell-based; conditions: Cricetulus griseus

Structure (SMILES)	MIC99 [1]	solubility kinetic at 2 h [2]	other results
Cc1cc(NCc2ccccn2)n2ncc(-c3ccc(Cl)cc3)c2n1	10 µM (≈ 3.5 µg/mL)	< 5 µM	
Cc1cc(NCc2ccccn2)n2ncc(-c3ccccc3)c2n1	10 µM (≈ 3.15 µg/mL)	< 5 µM	
Cc1cc(NCc2ccccn2)n2nc(C)c(-c3ccccc3)c2n1	5 µM (≈ 1.65 µg/mL)	< 5 µM	remaining at 0.5 h, 0.1 µM [3]: 51.9%; remaining at 0.5 h, 0.1 µM [4]: 39%; remaining at 0.5 h, 0.1 µM [5]: 6.2%; MIC99 [6]: > 160 µM; MIC99 [7]: > 160 µM; IC50 (CHO): 34 µM
Cc1cc(NCc2ccccn2)n2ncc(-c3ccc(F)cc3)c2n1	5 µM (≈ 1.67 µg/mL)	< 5 µM	
Cc1cc(NCc2cccnc2)n2nc(C)c(-c3ccccc3)c2n1	> 160 µM	110 µM (≈ 36.3 µg/mL)	
Cc1cc(NCc2ccncc2)n2nc(C)c(-c3ccccc3)c2n1	> 160 µM	134 µM (≈ 44 µg/mL)	
Cc1cc(NCc2ncccn2)n2nc(C)c(-c3ccccc3)c2n1	80 µM (≈ 26.4 µg/mL)	37.9 µM (≈ 12.5 µg/mL)	
Cc1cc(NCc2cnccn2)n2nc(C)c(-c3ccccc3)c2n1	80 µM (≈ 26.4 µg/mL)	7.1 µM (≈ 2.35 µg/mL)	
Cc1cc(NCCc2ccccn2)n2nc(C)c(-c3ccccc3)c2n1	> 160 µM	< 5 µM	
Cc1cc(NCCCc2ccccn2)n2nc(C)c(-c3ccccc3)c2n1	80 µM (≈ 28.6 µg/mL)	5.9 µM (≈ 2.11 µg/mL)	
Cc1cc(Nc2ccccn2)n2nc(C)c(-c3ccccc3)c2n1	> 160 µM	< 5 µM	
Cc1cc(N(C)Cc2ccccn2)n2nc(C)c(-c3ccccc3)c2n1	> 160 µM	17.5 µM (≈ 6.01 µg/mL)	
Cc1cc(OCc2ccccn2)n2nc(C)c(-c3ccccc3)c2n1	> 160 µM	25.6 µM (≈ 8.46 µg/mL)	
Cc1cc(NCc2nccn2C)n2nc(C)c(-c3ccccc3)c2n1	5 µM (≈ 1.66 µg/mL)	26.9 µM (≈ 8.94 µg/mL)	MIC99 [6]: 37 µM (≈ 12.3 µg/mL); MIC99 [7]: 20 µM (≈ 6.65 µg/mL); IC50 (CHO): < 9 µM
Cc1cc(NCc2ncc[nH]2)n2nc(C)c(-c3ccccc3)c2n1	37 µM (≈ 11.8 µg/mL)	< 5 µM	
Cc1cc(NCc2c[nH]cn2)n2nc(C)c(-c3ccccc3)c2n1	> 160 µM	14.6 µM (≈ 4.65 µg/mL)	
Cc1cccc(CNc2cc(C)nc3c(-c4ccccc4)c(C)nn23)n1	> 160 µM	< 5 µM	
Cc1cc(NCc2ccco2)n2nc(C)c(-c3ccccc3)c2n1	> 160 µM	< 5 µM	
Cc1cc(NCc2cccs2)n2nc(C)c(-c3ccccc3)c2n1	> 160 µM	< 5 µM	
Cc1cc(NCc2nccs2)n2nc(C)c(-c3ccccc3)c2n1	> 160 µM	108 µM (≈ 36.1 µg/mL)	
Cc1cc(NCc2ccc3ccccc3n2)n2nc(C)c(-c3ccccc3)c2n1	> 160 µM	< 5 µM	

Structure (SMILES)	MIC99 [1]	solubility kinetic at 2 h [2]	other results
Cc1cc(NCc2ccccn2)n2nc(C)c(-c3ccc(F)cc3)c2n1	5 µM (≈ 1.74 µg/mL)	< 5 µM	
COc1ccc(-c2c(C)nn3c(NCc4ccccn4)cc(C)nc23)cc1	20 µM (≈ 7.19 µg/mL)	< 5 µM	
COc1ccc(-c2cnn3c(NCc4ccccn4)cc(C)nc23)cc1	20 µM (≈ 6.91 µg/mL)	< 5 µM	
Cc1ccc(-c2cnn3c(NCc4ccccn4)cc(C)nc23)cc1	5 µM (≈ 1.65 µg/mL)	< 5 µM	
Cc1cc(NCc2ccccn2)n2ncc(-c3ccc(N(C)C)cc3)c2n1	20 µM (≈ 7.17 µg/mL)	< 5 µM	
Cc1cc(NCc2ccccn2)n2ncc(-c3ccc(C(F)(F)F)cc3)c2n1	> 160 µM	< 5 µM	
Cc1cc(NCc2ccccn2)n2ncc(-c3ccc(C#N)cc3)c2n1	> 160 µM	< 5 µM	
Cc1cc(NCc2ccccn2)n2ncc(-c3cccc(Cl)c3)c2n1	2.5 µM (≈ 0.875 µg/mL)	< 5 µM	MIC99 [6]: > 160 µM; MIC99 [7]: > 160 µM; IC50 (CHO): 3.78 µM
Cc1cc(NCc2ccccn2)n2ncc(-c3cccc(F)c3)c2n1	2.5 µM (≈ 0.833 µg/mL)	5 µM (≈ 1.67 µg/mL)	
Cc1cc(NCc2ccccn2)n2ncc(-c3ccccc3F)c2n1	2.5 µM (≈ 0.833 µg/mL)	5 µM (≈ 1.67 µg/mL)	MIC99 [6]: > 160 µM; MIC99 [7]: > 160 µM; IC50 (CHO): 5.45 µM
Cc1cc(NCc2ccccn2)n2ncc(-c3ccc(F)c(Cl)c3)c2n1	1.25 µM (≈ 0.46 µg/mL)	< 5 µM	MIC99 [6]: > 160 µM; MIC99 [7]: > 160 µM; IC50 (CHO): 20 µM
Cc1cc(NCc2ccccn2)n2ncc(-c3ccccc3C)c2n1	1.25 µM (≈ 0.412 µg/mL)	< 5 µM	
Cc1cc(NCc2ccccn2)n2ncc(-c3c(C)cccc3C)c2n1	> 160 µM	< 5 µM	
Cc1cc(NCc2ccccn2)n2ncc(-c3ccc(F)cc3F)c2n1	> 160 µM	< 5 µM	
Cc1cc(NCc2ccccn2)n2ncc(-c3cc(F)c(F)c(F)c3)c2n1	2.5 µM (≈ 0.923 µg/mL)	< 5 µM	
Cc1cc(NCc2ccccn2)n2ncc(-c3ccco3)c2n1	40 µM (≈ 12.2 µg/mL)	48.8 µM (≈ 14.9 µg/mL)	
Cc1cc(NCc2ccccn2)n2ncc(-c3ccsc3)c2n1	20 µM (≈ 6.43 µg/mL)	9 µM (≈ 2.89 µg/mL)	
Cc1cc(NCc2ccccn2)n2ncc(-c3ccncc3)c2n1	> 160 µM	161 µM (≈ 51 µg/mL)	
Cc1cc(NCc2ccccn2)n2ncc(-c3ccn(C)n3)c2n1	> 160 µM	188 µM (≈ 60 µg/mL)	
Cc1cc(NCc2ccccn2)n2ncc(-c3ccc(C(=O)Nc4ccccc4)cc3)c2n1	> 160 µM	5 µM (≈ 2.17 µg/mL)	
Cc1cc(NCc2ccccn2)n2nc(C)c(Nc3ccccc3)c2n1	40 µM (≈ 13.8 µg/mL)	7.8 µM (≈ 2.69 µg/mL)	

Structure (SMILES)	MIC99 [1]	solubility kinetic at 2 h [2]	other results
Cc1cc(NCc2ccccn2)n2ncc(C3=CCC(F)(F)CC3)c2n1	5 µM (≈ 1.78 µg/mL)	5 µM (≈ 1.78 µg/mL)	
Cc1cc(NCc2ccccn2)n2ncc(C3=CCOCC3)c2n1	80 µM (≈ 25.7 µg/mL)	171 µM (≈ 54.9 µg/mL)	
Cc1cc(NCc2ccccn2)n2ncc(Br)c2n1	> 160 µM	89.3 µM (≈ 28.4 µg/mL)	
Cc1cc(NCc2ccccn2)n2nc(C)cc2n1	5 µM (≈ 1.27 µg/mL)	> 200 µM	
Cc1cc(NCC2CCCCN2)n2nc(C)c(-c3ccccc3)c2n1 (centres undefined)	> 160 µM	189 µM (≈ 63.3 µg/mL)	remaining at 0.5 h, 0.1 µM [3]: 51.8%; remaining at 0.5 h, 0.1 µM [4]: 5.1%; remaining at 0.5 h, 0.1 µM [5]: 14%
CCN1CCCC1CNc1cc(C)nc2c(-c3ccccc3)c(C)nn12 (centres undefined)	> 160 µM	172 µM (≈ 60.1 µg/mL)	remaining at 0.5 h, 0.1 µM [3]: 54%
Cc1cc(NCc2ccc(F)cn2)n2nc(C)c(-c3ccccc3)c2n1	5 µM (≈ 1.74 µg/mL)	< 5 µM	remaining at 0.5 h, 0.1 µM [3]: 31.4%; remaining at 0.5 h, 0.1 µM [4]: 45.5%; remaining at 0.5 h, 0.1 µM [5]: 5.3%; MIC99 [6]: 20 µM (≈ 6.95 µg/mL); MIC99 [7]: > 160 µM; IC50 (CHO): 22 µM
Cc1cc(NCc2cccc[n+]2[O-])n2ncc(-c3ccccc3)c2n1	> 160 µM	159 µM (≈ 52.7 µg/mL)	remaining at 0.5 h, 0.1 µM [3]: 99.7%; remaining at 0.5 h, 0.1 µM [4]: 61.2%; remaining at 0.5 h, 0.1 µM [5]: 12.3%
Cc1cc(NCc2nccn2C)n2nc(C)cc2n1	> 160 µM	182 µM (≈ 46.7 µg/mL)	remaining at 0.5 h, 0.1 µM [3]: 100%; remaining at 0.5 h, 0.1 µM [4]: 80.6%; remaining at 0.5 h, 0.1 µM [5]: 85.1%
Cc1cc(NCc2ncnn2C)n2nc(C)c(-c3ccccc3)c2n1	> 160 µM	185 µM (≈ 61.6 µg/mL)	remaining at 0.5 h, 0.1 µM [3]: 99.5%; remaining at 0.5 h, 0.1 µM [4]: 68.8%; remaining at 0.5 h, 0.1 µM [5]: 18.9%
Cc1cc(NCc2ccccn2)n2ncc(-c3ccc(O)cc3)c2n1	> 160 µM	10.9 µM (≈ 3.61 µg/mL)	remaining at 0.5 h, 0.1 µM [3]: 99.3%; remaining at 0.5 h, 0.1 µM [4]: 60.1%; remaining at 0.5 h, 0.1 µM [5]: 41.4%
Cc1cc(NCc2ccccn2)n2ncc(-c3cccc(N)c3)c2n1	> 160 µM	160 µM (≈ 52.8 µg/mL)	remaining at 0.5 h, 0.1 µM [3]: 89.5%; remaining at 0.5 h, 0.1 µM [4]: 56.8%; remaining at 0.5 h, 0.1 µM [5]: 55.1%
Cc1cc(NCc2ccccn2)n2ncc(-c3cccc(N(C)C)c3)c2n1	80 µM (≈ 28.7 µg/mL)	94.6 µM (≈ 33.9 µg/mL)	remaining at 0.5 h, 0.1 µM [3]: 33.7%; remaining at 0.5 h, 0.1 µM [4]: 4.5%; remaining at 0.5 h, 0.1 µM [5]: 7.9%
Cc1cc(NCc2ccccn2)n2ncc(-c3cncnc3)c2n1	160 µM (≈ 50.8 µg/mL)	111 µM (≈ 35.2 µg/mL)	
Cc1cc(NCc2ccccn2)n2ncc(-c3ccc(C(=O)NCCN(C)C)cc3)c2n1	> 160 µM	189 µM (≈ 81.3 µg/mL)	
Cc1cc(NCc2ccccn2)n2nc(C)c(-c3cccnc3F)c2n1	10 µM (≈ 3.48 µg/mL)	< 5 µM	remaining at 0.5 h, 0.1 µM [3]: 100%; remaining at 0.5 h, 0.1 µM [4]: 96.5%; remaining at 0.5 h, 0.1 µM [5]: 100%
Cc1cc(NCc2ccccn2)n2ncc(-c3ccc(F)cc3C)c2n1	> 160 µM	42.3 µM (≈ 14.7 µg/mL)	
NC[C@H]1O[C@H](O[C@H]2[C@H](O)[C@@H](O[C@H]3O[C@H](CO)[C@@H](O)[C@H](N)[C@H]3O)[C@H](N)C[C@@H]2N)[C@H](O)[C@@H](O)[C@@H]1O [KANAMYCIN]	6.45 µM (≈ 3.13 µg/mL)		
CO[C@H]1/C=C/O[C@@]2(C)Oc3c(C)c(O)c4c(O)c(c(/C=N/N5CCN(C)CC5)c(O)c4c3C2=O)NC(=O)/C(C)=C\C=C\[C@H](C)[C@H](O)[C@@H](C)[C@@H](O)[C@@H](C)[C@H](OC(C)=O)[C@@H]1C [RIFAMPIN]	0.012 µM (≈ 0.00988 µg/mL)		
